According to PubChem BioAssay (NCI):
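96-well plates; 48 h exposure; 5 concentrations. Endpoints by linear interpolation between flanking doses. Not reached: highest tested concentration assigned. TGI denotes the concentration required for complete inhibition of growth.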 Where a SMILES comes first, the peptide text is derived from it. The star is where a group is joined. Cbz = O=C(OCc1ccccc1)*; Boc = CC(C)(C)OC(=O)*; OSu = O=C1CCC(=O)N1O*; Bn = c1ccc(C*)cc1

How the values were obtained:
Assay in all cases: NCI-60 cell line screen, 48 h
RXF 393 renal = system: RXF 393 renal
RPMI-8226 leukemia = system: RPMI-8226 leukemia
SK-OV-3 ovarian = system: SK-OV-3 ovarian
CCRF-CEM leukemia = system: CCRF-CEM leukemia
T-47D breast = system: T-47D breast
COLO 205 colon = system: COLO 205 colon
HL-60(TB) leukemia = system: HL-60(TB) leukemia
A498 renal = system: A498 renal
SF-268 CNS = system: SF-268 CNS
MDA-MB-435 = system: MDA-MB-435
MCF7 breast = system: MCF7 breast
SF-295 CNS = system: SF-295 CNS
MALME-3M melanoma = system: MALME-3M melanoma

SMILES	TGI (RXF 393 renal) [µM]	TGI (RPMI-8226 leukemia) [µM]	TGI (SK-OV-3 ovarian) [µM]	TGI (CCRF-CEM leukemia) [µM]	TGI (T-47D breast) [µM]	TGI (COLO 205 colon) [µM]	TGI (HL-60(TB) leukemia) [µM]	TGI (A498 renal) [µM]	TGI (SF-268 CNS) [µM]	TGI (MDA-MB-435) [µM]	TGI (MCF7 breast) [µM]	TGI (SF-295 CNS) [µM]	TGI (MALME-3M melanoma) [µM]
O=C(O)c1ccc(NC(NC(=O)C(C(F)(F)F)C(F)(F)F)(C(F)(F)F)C(F)(F)F)cc1	> 100	> 100	> 100	> 100	> 100	> 100	> 100	> 100	> 100	> 100	–	–	–
CN(C)S(=O)(=O)/N=C/c1cccc(/C=N/S(=O)(=O)N(C)C)c1	–	> 100	> 100	> 100	> 100	> 100	> 100	> 100	> 100	> 100	> 100	> 100	–
CC(C)(C)Nc1noc(=O)n1C(C)(C)C	> 100	> 100	> 100	> 100	–	> 100	> 100	> 100	> 100	> 100	> 100	> 100	> 100
C=C(C)[C@H]1C=C[C@@H](OC(=O)c2cccnc2)[C@@]23CO[C@@](C)([C@H](OC(=O)c4cccnc4)[C@@]4(OC(C)=O)C[C@H](C)[C@H](OCCC)[C@@H]4[C@H]2OC(C)=O)[C@H]13	> 15	> 15	> 15	> 15	> 15	> 15	14.1	> 15	> 15	> 15	> 15	> 15	–
O=C(CSc1nc2[nH]ncc2c(=O)[nH]1)c1ccc(Cl)cc1	> 100	> 100	> 100	> 100	> 100	> 100	–	–	> 100	> 100	> 100	> 100	> 100
COc1cc(C2C(C#N)=C(N)OC3=C2CCS(=O)(=O)c2ccc(C)cc23)cc(OC)c1OC (stereo not given)	–	> 100	–	> 100	> 100	> 100	> 100	> 100	> 100	> 100	–	–	> 100
COC(CC1(/C=C/O[Si](C(C)C)(C(C)C)C(C)C)C(=O)N(C)c2ccccc21)OC (stereo not given)	> 100	> 100	> 100	> 100	> 100	> 100	> 100	> 100	> 100	> 100	> 100	> 100	–
CC(=O)OC1CCCn2c1nc1c2C(=O)C(C)=C(N2CC2)C1=O (stereo not given)	0.768	14.2	0.965	59	–	1.2	14.6	0.36	1.05	–	–	0.665	0.47
CC(=O)CSc1c(-c2ccccc2)c(=O)n(-c2ccccc2)c(=S)n1-c1ccccc1	–	> 100	> 100	> 100	> 100	> 100	> 100	–	> 100	> 100	> 100	> 100	> 100
O=c1ccn(C2OC(CO)C(O)C2[Se]c2ccccc2)c(=O)[nH]1 (stereo not given)	–	–	> 100	> 100	–	> 100	> 100	> 100	> 100	> 100	> 100	> 100	> 100
NC(=S)N/N=C1\NC(=O)/C(=C/c2ccc3c(c2)OCO3)S1	52.3	–	> 100	–	71.2	71.3	63.3	30.3	97.3	78.1	> 100	> 100	–
CC(C)(C)OC(=O)NCCc1cccc2c1oc1c(CCC(=O)O)cccc12	> 100	> 100	> 100	> 100	–	> 100	> 100	> 100	> 100	–	–	> 100	> 100
O=C(Nc1ccccc1)N(C1=NCC(CI)S1)c1ccc(F)cc1F (stereo not given)	> 100	> 100	> 100	48.1	> 100	> 100	48	–	> 100	> 100	> 100	> 100	> 100
CCN(CC)CCNC(=O)c1cc2cc(NC(=O)c3cc4cc(NC(=O)c5cc6cc(N)ccc6[nH]5)ccc4[nH]3)ccc2[nH]1	> 100	> 100	> 100	> 100	> 100	> 100	–	> 100	> 100	> 100	–	> 100	> 100
c1ccc(-n2nc3ccc4nonc4c3n2)cc1	> 100	> 100	> 100	> 100	> 100	> 100	> 100	–	> 100	> 100	> 100	> 100	> 100
O=C(N=Nc1cccc(Cl)c1)NNc1cccc(Cl)c1	–	56.8	–	48.5	> 100	–	41.7	44.9	73.6	26.5	–	–	39.6
CCOC(=O)C(C)NC(=O)C(C)NC(=O)C(C)NC(=O)C(C)NC(=O)C(C)NC(=O)OCc1ccccc1 (stereo not given)	> 100	> 100	> 100	> 100	> 100	> 100	> 100	–	> 100	> 100	> 100	> 100	> 100
CC(=O)NC1=C(NCCN(C)C)C(=O)c2ccccc2C1=O	> 50	–	> 50	> 50	–	17.7	22.5	–	> 50	–	–	> 50	14.3
c1ccc(CNCCCCNCCCNCc2ccccc2)cc1	32.7	> 100	> 100	32.4	> 100	27.6	–	–	51.8	34.7	> 100	> 100	30.2
CCc1c(Cc2[nH]c(Cc3[nH]c(C=O)c(C)c3CC)c(CC)c2CC)[nH]c(C=O)c1C	> 100	> 100	> 100	> 100	–	> 100	> 100	–	> 100	–	–	> 100	> 100

SMILES	TGI (RXF 393 renal) [µM]	TGI (RPMI-8226 leukemia) [µM]	TGI (SK-OV-3 ovarian) [µM]	TGI (CCRF-CEM leukemia) [µM]	TGI (T-47D breast) [µM]	TGI (COLO 205 colon) [µM]	TGI (HL-60(TB) leukemia) [µM]	TGI (A498 renal) [µM]	TGI (SF-268 CNS) [µM]	TGI (MDA-MB-435) [µM]	TGI (MCF7 breast) [µM]	TGI (SF-295 CNS) [µM]	TGI (MALME-3M melanoma) [µM]
COc1cc(OC)c2nc(C)c3c(c2c1)NCC3	18.1	–	49.6	31.3	–	17.1	40.7	27.7	20	21.6	17.8	28.9	24
O=c1oc2ccccc2c(O)c1/C=N/C(=S)NCCc1ccccc1	> 100	89.3	> 63.8	86.1	> 100	> 100	5.38	–	> 100	> 75.3	> 100	> 100	–
C=C(C)[C@@]1(OC(=O)c2cc([N+](=O)[O-])cc([N+](=O)[O-])c2)C[C@@H]2CCCC[C@@H]21	–	> 100	> 100	> 100	> 100	> 100	> 100	–	> 100	–	> 100	> 100	> 100
Cc1ncc2c(=O)c3c(oc2n1)c1ccccc1n3Cc1ccccc1	> 100	> 100	–	> 100	> 100	> 100	> 100	–	> 100	> 100	> 100	> 100	> 100
CC(C)(C)OC(=O)NC(Cc1ccc(OCc2ccccc2)cc1)C(=O)NC(CCCCNC(=O)OCc1ccccc1)C(=O)ON1C(=O)CCC1=O (stereo not given) (Boc-Tyr(Bn)-Lys(Cbz)-OSu; configuration not given here)	55.3	45.3	–	–	–	72.1	49.3	> 100	–	–	44.3	–	46.9
CCN(CC)c1ccc2cc(C(=O)Nc3ccccc3)c(=N)oc2c1	> 100	> 100	> 100	> 100	> 100	> 100	> 100	–	> 100	> 100	> 100	> 100	> 100
O=C(O)c1cc(/C=C/c2cc(O)ccc2O)ccc1O	–	–	–	> 10	–	–	> 10	–	> 10	> 10	> 10	> 10	> 10
Cc1nc(N/N=C/c2ccccc2Cl)[nH]c(=O)c1CCO	69.9	> 100	43.4	> 100	> 100	> 100	> 100	–	> 100	> 100	> 100	96	91.4
O=C(c1ccccc1)c1ccc(-n2c3ccccc3c3ccc4c(c32)C(=O)C=CC4=O)cc1	19.2	> 100	42.9	–	> 22.6	25.9	18.2	25.3	26.3	20.5	10	32.4	–
C[n+]1c(-c2ccc(/C=N/NC(=O)C(=O)N/N=C/c3ccc(-c4cn5ccsc5[n+]4C)cc3)cc2)cn2ccsc21	–	> 100	> 100	> 100	> 100	> 100	> 100	–	> 100	> 100	> 100	> 100	–
CO[C@@H]1C=C[C@@]23c4cc5c(cc4C(=O)O[C@H]2CN(C)[C@H]3C1)OCO5	> 100	> 100	> 100	> 100	–	> 100	> 100	> 100	> 100	–	–	> 100	–
COC(=O)[C@@H]1CN(C(C)=O)C(=O)N1C(=O)OCc1ccccc1	> 100	> 100	> 100	> 100	> 100	> 100	> 100	> 100	> 100	> 100	–	> 100	> 100
Oc1ccc(N=C2CCC(=C(c3ccccc3)c3ccc(Nc4ccc(O)cc4)cc3)CC2)cc1	> 100	> 100	> 100	> 100	–	> 100	–	> 100	> 100	> 100	> 100	> 100	–
CC(NC(=O)c1ccccc1)NC(=O)C(C)C(=O)Nc1ccccc1 (stereo not given)	> 100	> 100	> 100	> 100	> 100	> 100	> 100	–	> 100	> 100	> 100	> 100	> 100
Cc1cc(S(=O)(=O)Nc2cc(N)[nH]n2)c(SCc2nc(N)nc(N(C)C)n2)cc1Cl	> 10	> 10	> 10	> 10	> 10	> 10	> 10	> 10	> 10	–	> 10	> 10	> 10
Nc1cc(N2CCCC2)nc(=O)n1-c1ccccc1	–	> 100	–	> 100	–	> 100	> 100	–	–	> 100	> 100	> 100	> 100
NCCN1C(=O)CN=C(c2ccc(Cl)cc2)c2cc(Cl)ccc21	24.5	36.4	47.6	64.2	59.3	38.7	37.7	33.8	30.4	28.3	–	> 100	29.7
N#C/C(C(=O)Nc1ccc(Cl)cc1)=C(/N)N1CCCCC1	–	> 100	> 100	> 100	> 100	> 100	> 100	> 100	–	> 100	> 100	> 100	–
CO/N=C(\C(=O)N(C)n1cnnc1)c1csc(NC(c2ccccc2)(c2ccccc2)c2ccccc2)n1	> 10	> 10	> 10	> 10	> 10	> 10	> 10	> 10	> 10	–	> 10	> 10	> 10
